Key:
pY705-STAT3 = experiment: Western blotting of p-STAT3 in HCT116 cells; format: cell-based, human; settings: HCT116, 1 µM, 48 hours
From the text: Figure 3 PS-acet.-STAT3 peptide inhibits STAT3 activity and downregulates the expression of STAT3 targets. (A) Downregulation of STAT3 activity and its downstream target proteins shown in human HCT116 colorectal cancer cells by Western blotting (data represent 1 of the 3 experiments, n = 3). PO-acet.-STAT3 and PS-STAT3-K685R peptides were used in parallel as controls. (B) STAT3 inhibition regulated the expression of proliferation and apoptotic genes, assessed by real-time quantitative PCR. Data present mean ± SD, n = 3 independent experiments, 1-way ANOVA; ***P < 0.005; **P < 0.01. […] For p53 promoter assay, data represent 3 replicates in 3 independent experiments (n = 9). For cell proliferation assay, data represent 3 independent experiments. SD is shown (n = 3). One-way ANOVA; ***P < 0.005; **P < 0.01.
Whole cell lysates or tissue homogenates were prepared by using RIPA lysis buffer (50 mM Tris at pH 7.4, 150 mM NaCl, 1 mM EDTA, 0.5% NP-40, 1 mM NaF, 15% glycerol, and 20 mM β-glycerophosphate). A protease inhibitor cocktail (Mini Protease Inhibitor Cocktail; Roche) and a tyrosine phosphatase inhibitor, sodium orthovanadate (Na3VO4, 1 mM), were added freshly to the lysis buffer. Protein amounts were determined by BCA using a Thermo Fisher Scientific kit. Normalized protein amounts were subjected to an SDS-PAGE and transferred onto a nitrocellulose membrane for Western blotting. […] The protein levels for STAT1 (sc-346, E-23), STAT3 (sc-482, C-20), STAT5 (sc-74442, A-9), Crm1 (exportin 1) (sc-5595, H-300), CAS (exportin 2) (sc-271537, H-2), exportin 5 (sc-66885, H-300), and exportin 7 (sc-98639, H-82) were determined using antibodies from Santa Cruz Biotechnology Inc. Anti–exportin 3 (exportin T, 630622, LOS1 05-1525), anti–exportin 4 (3499-1), and anti–exportin 6 (11408-1-AP) were from MilliporeSigma, Epitomics, and Proteintech, respectively. […]
(§1) Supplemental Figure 4 (related to Figure 1). […] Phosphorylation of STAT3 at Y705 and STAT5 at Y694 was detected by Western blotting after 48 hours treatment of PS-acet.-STAT3 peptide (1 µM) or napabucasin (1 µM) in HCT116 cells. […]

pY694-STAT5 = experiment: Western blotting of p-STAT5 in HCT116 cells; format: cell-based, human; settings: HCT116, 1 µM, 48 hours
Method: Whole cell lysates or tissue homogenates were prepared by using RIPA lysis buffer (50 mM Tris at pH 7.4, 150 mM NaCl, 1 mM EDTA, 0.5% NP-40, 1 mM NaF, 15% glycerol, and 20 mM β-glycerophosphate). A protease inhibitor cocktail (Mini Protease Inhibitor Cocktail; Roche) and a tyrosine phosphatase inhibitor, sodium orthovanadate (Na3VO4, 1 mM), were added freshly to the lysis buffer. Protein amounts were determined by BCA using a Thermo Fisher Scientific kit. Normalized protein amounts were subjected to an SDS-PAGE and transferred onto a nitrocellulose membrane for Western blotting. Proteins were visualized with a chemiluminescent detection kit (Pierce, Thermo Fisher Scientific). The protein levels for STAT1 (sc-346, E-23), STAT3 (sc-482, C-20), STAT5 (sc-74442, A-9), Crm1 (exportin 1) (sc-5595, H-300), CAS (exportin 2) (sc-271537, H-2), exportin 5 (sc-66885, H-300), and exportin 7 (sc-98639, H-82) were determined using antibodies from Santa Cruz Biotechnology Inc. Anti–exportin 3 (exportin T, 630622, LOS1 05-1525), anti–exportin 4 (3499-1), and anti–exportin 6 (11408-1-AP) were from MilliporeSigma, Epitomics, and Proteintech, respectively. […]
as §1

HCT116 xenograft tumors = experiment: HCT116 xenograft in NSG mice, peritumoral treatment; format: in vivo, mouse; settings: HCT116 s.c. in NSG mice, 1 mg/kg peritumoral every day, n = 4
Method: Mouse care and experimental procedures were performed under pathogen-free conditions in accordance with established institutional guidance and approved IACUC protocols from Research Animal Care Committee of the City of Hope. For s.c. tumor challenge, 5 × 10^6 HCT116 cells were injected into NSG mice from The Jackson Laboratory or animal resource core facility at the City of Hope. After tumors reached an average size of 80~100 mm^3, mice were locally or intravenously treated with 1 mg/kg of PO- or PS-peptides (Anaspec) every day or every other day. Control animals were treated with the equal volume of HBSS (Invitrogen, Thermo Fisher Scientific). Tumor growth was measured by a digital caliper every other day. […] Lungs were then analyzed for immune responses by immunostaining followed by confocal imaging. […] Tumor growth was measured by a digital caliper every other day. […]
(B) PS-acet.-STAT3 peptide downregulates STAT3 phosphorylation, assessed by Western blotting using tumor homogenates prepared from tumors shown in A.
(C) mRNA levels for CASP9, BIRC5 and BCL2L1 in the same tumor tissues described above were assessed by qRT-PCR. […]
(D) Treatments with PS-acet.-STAT3 peptide induced cell death, indicated by H&E staining (upper panel). […] Right panels represent quantification of Ki-67 protein levels and mean of vessel diameter (data include 5 fields of view per group). […]

B16 melanoma = B16 melanoma lung metastasis in C57BL/6 mice; format: in vivo, mouse; settings: B16 i.v. in C57BL/6 mice, 1 mg/kg i.v. every other day, gp100 staining, n = 5
From the text: Figure 7 PS-acet.-STAT3 peptide treatment efficiently reduces mouse melanoma lung metastasis. (A) Systemic PS-acet.-STAT3 peptide treatment reduces B16 lung nodules in syngeneic mouse model compared with control treatments. The B16 lung nodules in mice treated with the indicated STAT3 peptides and vehicle (n = 5) were visualized by IF staining of gp100 and quantified by confocal microscopy and Zen software. The levels of phosphorylation of STAT3 (p-STAT3), CD69, and Foxp3 in the tumor or tumor-infiltrating CD8^+ T or CD4^+ T cells were detected by IF staining followed by confocal microscopy in B16 metastatic lung nodules upon treatments with vehicle, PO- or PS-acet.-STAT3, PS-STAT3-K685R, or PS-unacet.-STAT3 peptides as indicated. Images are representative of 5 lungs per experimental group. Scale bars: 20 μm (CD69, CD8, CD4, p-STAT3, and Foxp3) and 100 μm (gp100). White arrows indicate the immune cells. Insets: original magnification, ×40. (B) The graphs show the quantification of gp100 and p-STAT3 expression levels (MFI) or the cell population (%) of CD69^+ in CD8^+ or p-STAT3^+ in CD4^+ or Foxp3^+ in CD4^+ (data represent 5 lungs per group, n = 5). SD is shown. One-way ANOVA; ****P < 0.001.
Mouse care and experimental procedures were performed under pathogen-free conditions in accordance with established institutional guidance and approved IACUC protocols from Research Animal Care Committee of the City of Hope. For s.c. tumor challenge, 5 × 10^6 HCT116 cells were injected into NSG mice from The Jackson Laboratory or animal resource core facility at the City of Hope. After tumors reached an average size of 80~100 mm^3, mice were locally or intravenously treated with 1 mg/kg of PO- or PS-peptides (Anaspec) every day or every other day. Control animals were treated with the equal volume of HBSS (Invitrogen, Thermo Fisher Scientific). Tumor growth was measured by a digital caliper every other day. To study the effects of the modified peptides at protein and gene levels, mice were euthanized 4–6 weeks after tumor injection. B16 melanoma lung metastasis was performed by injecting 0.5 × 10^6 B16 cells into bloodstream of C57BL/6 mice (The Jackson Laboratory). One day after tumor challenge, mice were treated intravenously (retro-orbitally) with 1 mg/kg of PO- or PS-acet.-STAT3, PS-unacet.-STAT3, or PS-STAT3-K685R peptides every other day until the endpoint as indicated. Control mice were treated with HBSS. Lungs were excised from the mice, and B16 nodules were visualized by gp100 staining. Lungs were then analyzed for immune responses by immunostaining followed by confocal imaging. For mouse PDAC model, 5 × 10^6 KPC mouse cells were mixed with Matrigel and subcutaneously injected into C57BL/6 mice (The Jackson Laboratory). After tumors reached an average size of 80~100 mm^3, mice were intravenously treated with 1 mg/kg of PO- or PS-Gp130, PS-oligo, PS-SC-MYC, PS-MYC. or combined PS-Gp130/PS-MYC (0.5 mg/kg, 0.5 mg/kg) (Anaspec) every other day for 18 days. Control animals were treated with the equal volume of HBSS (Invitrogen, Thermo Fisher Scientific). Tumor growth was measured by a digital caliper every other day. To study the effects of the modified peptides at protein and gene levels, mice were euthanized at the endpoint as indicated.

[1] = Systemic toxicity in mice; format: in vivo; settings: 1 mg/kg i.v. every other day for 3 weeks, n = 3
Method: To evaluate the potential toxicity associated with systemic treatments of PS-peptide, PS-acet.-STAT3 peptide, PS-oligo, naive peptide, and PO- or PS-acet.-STAT3 peptide were given to the mice at 1 mg/kg through i.v. every other day for 3 weeks.
Supplemental Figure 10 (related to Figure 3). The systemic toxicity of PS-acet.-peptide.
The bodyweight (A), blood count (B) and organ morphology (H&E staining; spleen, kidney and liver) (C) of the mice (n=3) treated with HBSS (1), PS-oligo (2), naïve peptide (3), PO-peptide (4) or PS-peptide (5) every other day at 1 mg/kg (per treatment) for 3 weeks.
Individual value of each mouse is shown as a dot on the graph. The red lines on each graph in (B) indicate the normal ranges. Blood count was done by a veterinary hematology analyzer. The images shown in (C) are the represented H&E section from three mice (n=3). Enlarged view are shown below as indicated. Scale bar, 50 µm.
Aftabizadeh and Li et al., Figure S10

Compound	phosphorylated STAT3 (p-STAT3, Y705) level (pY705-STAT3)	p-STAT5 (Y694) level (pY694-STAT5)	tumor growth (HCT116 xenograft tumors)	metastatic lung nodules (B16 melanoma)	behavior, body weight, blood counts [1]	morphology and cell death in liver, spleen, kidney tissues (H&E) [1]
CC(=O)c1cc2c(o1)C(=O)c1ccccc1C2=O [napabucasin, reference compound]	inhibited	inhibited	–	–	–	–
PDIPKEEAFGK685(Ac)YCRPESQEHPC-linker-TCCATGAGCTTCCTGATGCT [PO-acet.-STAT3 peptide]	–	–	not	few antitumor effects	No behavior changes, body weight loss, or abnormal blood counts	no significant morphology change or cell death
